According to patent US10681909B2, “Herbicidal triazoles” (FMC Corporation, priority 2014, dated 2020):

Columns and labels:
[1] = test system: foxtail, giant; experiment: Test A postemergence; format: in vivo, Setaria faberii; conditions: 0 to 100 scale (0 no effect, 100 complete control), approx. 10 d
Procedure, shortened: (§1)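 Plant seeds in loam soil blended with sand, then apply test chemical preemergence as a directed soil spray; in parallel, spray potted seedlings (one- to two-leaf, 2 to 10 cm) postemergence. Both treatments use a non-phytotoxic solvent mixture with surfactant.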

[2] = test system: chickweed; experiment: Test C postemergence; format: in vivo, Stellaria media
Procedure, shortened: (§2)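 Test chemicals in a non-phytotoxic solvent mixture with surfactant were applied to pots of plants at 2 to 18 cm (1- to 4-leaf stage) for postemergence treatment, grown in a peat-based medium with vermiculite, starter nutrients and dolomitic limestone. Preemergence treatment was to seeds freshly planted in loam soil mixed with sand.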

[3] = test system: wheat (winter wheat); experiment: Test C postemergence; format: in vivo, Triticum aestivum
Procedure, shortened: as §2

[4] = test system: oilseed rape; experiment: Test C postemergence; format: in vivo, Brassica napus
Procedure, shortened: as §2

[5] = test system: rice; experiment: Test B flooded paddy test; format: in vivo, Oryza sativa; conditions: 250 g ai/ha, applied to paddy water at 2-leaf stage, visual rating after 13 to 15 d, scale 0 (no effect) to 100 (complete control)
Procedure, shortened: (§3)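 Pots were flooded to 3 cm above the soil at treatment, and compounds were applied directly into the paddy water. That depth was held throughout. After 13 to 15 d in a greenhouse, plants were rated visually against untreated controls.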

[6] = test system: foxtail, giant; experiment: Test C postemergence; format: in vivo, Setaria faberii
Procedure, shortened: as §2

[7] = test system: ducksalad; experiment: Test B flooded paddy test; format: in vivo, Heteranthera limosa; conditions: 250 g ai/ha, applied to paddy water at 2-leaf stage, visual rating after 13 to 15 d, scale 0 (no effect) to 100 (complete control)
Procedure, shortened: as §3

[8] = test system: pigweed; experiment: Test C postemergence; format: in vivo, Amaranthus retroflexus
Procedure, shortened: as §2

[9] = test system: lambsquarters; experiment: Test C postemergence; format: in vivo, Chenopodium album
Procedure, shortened: as §2

[10] = test system: corn; experiment: Test A postemergence; format: in vivo, Zea mays; conditions: 0 to 100 scale (0 no effect, 100 complete control), approx. 10 d
Procedure, shortened: as §1

[11] = test system: johnsongrass; experiment: Test C postemergence; format: in vivo, Sorghum halepense
Procedure, shortened: as §2

[12] = test system: ryegrass, Italian; experiment: Test C postemergence; format: in vivo, Lolium multiflorum
Procedure, shortened: as §2

[13] = test system: barnyardgrass; experiment: Test B flooded paddy test; format: in vivo, Echinochloa crus-galli; conditions: 250 g ai/ha, applied to paddy water at 2-leaf stage, visual rating after 13 to 15 d, scale 0 (no effect) to 100 (complete control)
Procedure, shortened: as §3

[14] = test system: barnyardgrass; experiment: Test A postemergence; format: in vivo, Echinochloa crus-galli; conditions: 0 to 100 scale (0 no effect, 100 complete control), approx. 10 d
Procedure, shortened: as §1

[15] = test system: ragweed; experiment: Test C postemergence; format: in vivo, Ambrosia elatior
Procedure, shortened: as §2

[16] = test system: oat, wild; experiment: Test C postemergence; format: in vivo, Avena fatua
Procedure, shortened: as §2

[17] = test system: sedge, umbrella; experiment: Test B flooded paddy test; format: in vivo, Cyperus difformis; conditions: 250 g ai/ha, applied to paddy water at 2-leaf stage, visual rating after 13 to 15 d, scale 0 (no effect) to 100 (complete control)
Procedure, shortened: as §3

[18] = test system: galium; experiment: Test C postemergence; format: in vivo, Galium aparine
Procedure, shortened: as §2

[19] = test system: corn; experiment: Test C postemergence; format: in vivo, Zea mays
Procedure, shortened: as §2

[20] = test system: nutsedge, yellow; experiment: Test C postemergence; format: in vivo, Cyperus esculentus
Procedure, shortened: as §2

[21] = test system: pigweed; experiment: Test A postemergence; format: in vivo, Amaranthus retroflexus; conditions: 0 to 100 scale (0 no effect, 100 complete control), approx. 10 d
Procedure, shortened: as §1

## COc1nc(-c2ccc(Cl)cc2)nn1Cc1ccnc(C(F)(F)F)c1 [Compound 28]
[1]; 125 g ai/ha
  Plant response rating, Foxtail, Giant: 70
[1]; 500 g ai/ha
  Plant response rating, Foxtail, Giant: 90
[2]; 31 g ai/ha
  Plant response rating (scale of 0 to 100 where 0 is no effect and 100 is complete control): 80
[2]; 62 g ai/ha
  Plant response rating (scale of 0 to 100 where 0 is no effect and 100 is complete control): 95
[2]; 125 g ai/ha
  Plant response rating (scale of 0 to 100 where 0 is no effect and 100 is complete control): 90
[2]; 250 g ai/ha
  Plant response rating (scale of 0 to 100 where 0 is no effect and 100 is complete control): 90
[3]; 31 g ai/ha
  Plant response rating (scale of 0 to 100 where 0 is no effect and 100 is complete control): 0
[3]; 62 g ai/ha
  Plant response rating (scale of 0 to 100 where 0 is no effect and 100 is complete control): 5
[3]; 125 g ai/ha
  Plant response rating (scale of 0 to 100 where 0 is no effect and 100 is complete control): 5
[3]; 250 g ai/ha
  Plant response rating (scale of 0 to 100 where 0 is no effect and 100 is complete control): 10
[4]; Oilsee Rape, 250 g ai/ha
  Plant response rating (scale of 0 to 100 where 0 is no effect and 100 is complete control): 95
[4]; Oilseed Rape, 31 g ai/ha
  Plant response rating (scale of 0 to 100 where 0 is no effect and 100 is complete control): 25
[4]; Oilseed Rape, 62 g ai/ha
  Plant response rating (scale of 0 to 100 where 0 is no effect and 100 is complete control): 55
[4]; Oilseed Rape, 125 g ai/ha
  Plant response rating (scale of 0 to 100 where 0 is no effect and 100 is complete control): 70
[5]
  Plant response rating, Rice, Flood: 30
[6]; 31 g ai/ha
  Plant response rating (scale of 0 to 100 where 0 is no effect and 100 is complete control): 15
[6]; 62 g ai/ha
  Plant response rating (scale of 0 to 100 where 0 is no effect and 100 is complete control): 10
[6]; 125 g ai/ha
  Plant response rating (scale of 0 to 100 where 0 is no effect and 100 is complete control): 10
[6]; 250 g ai/ha
  Plant response rating (scale of 0 to 100 where 0 is no effect and 100 is complete control): 10
[7]
  Plant response rating, Ducksalad, Flood: 90
[8]; 31 g ai/ha
  Plant response rating (scale of 0 to 100 where 0 is no effect and 100 is complete control): 95
[8]; 62 g ai/ha
  Plant response rating (scale of 0 to 100 where 0 is no effect and 100 is complete control): 95
[8]; 125 g ai/ha
  Plant response rating (scale of 0 to 100 where 0 is no effect and 100 is complete control): 98
[8]; 250 g ai/ha
  Plant response rating (scale of 0 to 100 where 0 is no effect and 100 is complete control): 100
[9]; 31 g ai/ha
  Plant response rating (scale of 0 to 100 where 0 is no effect and 100 is complete control): 100
[9]; 62 g ai/ha
  Plant response rating (scale of 0 to 100 where 0 is no effect and 100 is complete control): 80
[9]; 125 g ai/ha
  Plant response rating (scale of 0 to 100 where 0 is no effect and 100 is complete control): 98
[9]; 250 g ai/ha
  Plant response rating (scale of 0 to 100 where 0 is no effect and 100 is complete control): 98
[10]; 125 g ai/ha
  Plant response rating, Corn: 10
[10]; 500 g ai/ha
  Plant response rating, Corn: 40
[11]; 62 g ai/ha
  Plant response rating (scale of 0 to 100 where 0 is no effect and 100 is complete control): 5
[11]; 125 g ai/ha
  Plant response rating (scale of 0 to 100 where 0 is no effect and 100 is complete control): 10
[11]; 250 g ai/ha
  Plant response rating (scale of 0 to 100 where 0 is no effect and 100 is complete control): 85
[12]; 31 g ai/ha
  Plant response rating (scale of 0 to 100 where 0 is no effect and 100 is complete control): 5
[12]; 62 g ai/ha
  Plant response rating (scale of 0 to 100 where 0 is no effect and 100 is complete control): 5
[12]; 125 g ai/ha
  Plant response rating (scale of 0 to 100 where 0 is no effect and 100 is complete control): 10
[12]; 250 g ai/ha
  Plant response rating (scale of 0 to 100 where 0 is no effect and 100 is complete control): 15
[13]
  Plant response rating, Barnyardgrass, Flood: 20
[14]; 125 g ai/ha
  Plant response rating, Barnyardgrass: 30
[14]; 500 g ai/ha
  Plant response rating, Barnyardgrass: 80
[15]; 31 g ai/ha
  Plant response rating (scale of 0 to 100 where 0 is no effect and 100 is complete control): 25
[15]; 62 g ai/ha
  Plant response rating (scale of 0 to 100 where 0 is no effect and 100 is complete control): 25
[15]; 125 g ai/ha
  Plant response rating (scale of 0 to 100 where 0 is no effect and 100 is complete control): 75
[15]; 250 g ai/ha
  Plant response rating (scale of 0 to 100 where 0 is no effect and 100 is complete control): 75
[16]; 31 g ai/ha
  Plant response rating (scale of 0 to 100 where 0 is no effect and 100 is complete control): 5
[16]; 62 g ai/ha
  Plant response rating (scale of 0 to 100 where 0 is no effect and 100 is complete control): 5
[16]; 125 g ai/ha
  Plant response rating (scale of 0 to 100 where 0 is no effect and 100 is complete control): 10
[16]; 250 g ai/ha
  Plant response rating (scale of 0 to 100 where 0 is no effect and 100 is complete control): 15
[17]
  Plant response rating, Sedge, Umbrella, Flood: 100
[18]; 31 g ai/ha
  Plant response rating (scale of 0 to 100 where 0 is no effect and 100 is complete control): 85
[18]; 62 g ai/ha
  Plant response rating (scale of 0 to 100 where 0 is no effect and 100 is complete control): 90
[18]; 125 g ai/ha
  Plant response rating (scale of 0 to 100 where 0 is no effect and 100 is complete control): 90
[18]; 250 g ai/ha
  Plant response rating (scale of 0 to 100 where 0 is no effect and 100 is complete control): 95
[19]; 31 g ai/ha
  Plant response rating (scale of 0 to 100 where 0 is no effect and 100 is complete control): 5
[19]; 62 g ai/ha
  Plant response rating (scale of 0 to 100 where 0 is no effect and 100 is complete control): 10
[19]; 125 g ai/ha
  Plant response rating (scale of 0 to 100 where 0 is no effect and 100 is complete control): 15
[19]; 250 g ai/ha
  Plant response rating (scale of 0 to 100 where 0 is no effect and 100 is complete control): 15
[20]; 31 g ai/ha
  Plant response rating (scale of 0 to 100 where 0 is no effect and 100 is complete control): 5
[20]; 62 g ai/ha
  Plant response rating (scale of 0 to 100 where 0 is no effect and 100 is complete control): 5
[20]; 125 g ai/ha
  Plant response rating (scale of 0 to 100 where 0 is no effect and 100 is complete control): 15
[20]; 250 g ai/ha
  Plant response rating (scale of 0 to 100 where 0 is no effect and 100 is complete control): 10
[21]; 125 g ai/ha
  Plant response rating, Pigweed: 100
[21]; 500 g ai/ha
  Plant response rating, Pigweed: 100
